Measured values published in the supplement of paper PMC10307832.

Experiments:
Experiment in all cases: relative viability (nuclei count vs DMSO), 5 days (fraction); higher = more cells survive
NCI-H3122 = tested on: NCI-H3122
Summary of the method: (§1)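 Cells from lung cancer lines were seeded into 1536-well plates and, one day later, dosed by pin tool. Treatments were either a single drug or a fixed dose of an anchor drug with five library-drug doses (not always all listed) in √10 steps. After 5 days, nuclei were stained in a one-step fixation (final 0.05% Triton X-100, 1% formaldehyde, 1 ug/ml Hoechst) and counted on 4× images, and relative viability is the treated-to-vehicle nuclei ratio, as the median of duplicate plates.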

NCI-H441 = tested on: NCI-H441
Summary of the method: as §1

NCI-H661 = tested on: NCI-H661
Summary of the method: as §1

HCC-366 = tested on: HCC-366
Summary of the method: as §1

NCI-H1650 = tested on: NCI-H1650
Summary of the method: as §1

201T = tested on: 201T
Summary of the method: as §1

LOU-NH91 = tested on: LOU-NH91
Summary of the method: as §1

LK-2 = tested on: LK-2
Summary of the method: as §1

NCI-H1666 = tested on: NCI-H1666
Summary of the method: as §1

NCI-H460 = tested on: NCI-H460
Summary of the method: as §1

ABC-1 = tested on: ABC-1
Summary of the method: as §1

SW 900 = tested on: SW 900
Summary of the method: as §1

HARA = tested on: HARA
Summary of the method: as §1

BEN = tested on: BEN
Summary of the method: as §1

EKVX = tested on: EKVX
Summary of the method: as §1

NCI-H2170 = tested on: NCI-H2170
Summary of the method: as §1

NCI-H2009 = tested on: NCI-H2009
Summary of the method: as §1

NCI-H1437 = tested on: NCI-H1437
Summary of the method: as §1

PC-14 = tested on: PC-14
Summary of the method: as §1

CAL-12T = tested on: CAL-12T
Summary of the method: as §1

NCI-H727 = tested on: NCI-H727
Summary of the method: as §1

COR-L 105 = tested on: COR-L 105
Summary of the method: as §1

SMILES: Cc1sc2c(c1C)C(c1ccc(Cl)cc1)=N[C@@H](CC(=O)OC(C)(C)C)c1nnc(C)n1-2 [JQ1] + CC(=O)c1c(C)c2cnc(Nc3ccc(N4CCNCC4)cn3)nc2n(C2CCCC2)c1=O [Palbociclib] (partner 0.5 µM)
- relative viability (NCI-H3122; first compound 0.04 µM): 0.22
- relative viability (NCI-H3122; first compound 0.1265 µM): 0.203
- relative viability (NCI-H3122; first compound 0.4 µM): 0.191
- relative viability (NCI-H3122; first compound 1.265 µM): 0.185
- relative viability (NCI-H3122; first compound 4 µM): 0.139
- relative viability (NCI-H441; first compound 0.04 µM): 0.19
- relative viability (NCI-H441; first compound 0.1265 µM): 0.206
- relative viability (NCI-H441; first compound 0.4 µM): 0.176
- relative viability (NCI-H441; first compound 1.265 µM): 0.137
- relative viability (NCI-H441; first compound 4 µM): 0.132
- relative viability (NCI-H661; first compound 0.04 µM): 0.406
- relative viability (NCI-H661; first compound 0.1265 µM): 0.369
- relative viability (NCI-H661; first compound 0.4 µM): 0.424
- relative viability (NCI-H661; first compound 1.265 µM): 0.406
- relative viability (NCI-H661; first compound 4 µM): 0.397
- relative viability (HCC-366; first compound 0.04 µM): 0.415
- relative viability (HCC-366; first compound 0.4 µM): 0.202
- relative viability (HCC-366; first compound 1.265 µM): 0.137
- relative viability (HCC-366; first compound 4 µM): 0.0766
- relative viability (NCI-H1650; first compound 0.04 µM): 0.322
- relative viability (NCI-H1650; first compound 0.1265 µM): 0.264
- relative viability (NCI-H1650; first compound 0.4 µM): 0.256
- relative viability (NCI-H1650; first compound 1.265 µM): 0.111
- relative viability (NCI-H1650; first compound 4 µM): 0.134
- relative viability (201T; first compound 0.04 µM): 0.334
- relative viability (201T; first compound 0.4 µM): 0.298
- relative viability (201T; first compound 1.265 µM): 0.313
- relative viability (201T; first compound 4 µM): 0.268
- relative viability (LOU-NH91; first compound 0.04 µM): 0.493
- relative viability (LOU-NH91; first compound 0.1265 µM): 0.474
- relative viability (LOU-NH91; first compound 0.4 µM): 0.491
- relative viability (LOU-NH91; first compound 1.265 µM): 0.394
- relative viability (LOU-NH91; first compound 4 µM): 0.446
- relative viability (LK-2; first compound 0.04 µM): 0.718
- relative viability (LK-2; first compound 0.1265 µM): 0.702
- relative viability (LK-2; first compound 0.4 µM): 0.339
- relative viability (LK-2; first compound 1.265 µM): 0.151
- relative viability (LK-2; first compound 4 µM): 0.151
- relative viability (NCI-H1666; first compound 0.04 µM): 0.646
- relative viability (NCI-H1666; first compound 0.1265 µM): 0.576
- relative viability (NCI-H1666; first compound 0.4 µM): 0.591
- relative viability (NCI-H1666; first compound 1.265 µM): 0.647
- relative viability (NCI-H1666; first compound 4 µM): 0.568
- relative viability (NCI-H460; first compound 0.04 µM): 0.172
- relative viability (NCI-H460; first compound 0.1265 µM): 0.0585
- relative viability (NCI-H460; first compound 0.4 µM): 0.0456
- relative viability (NCI-H460; first compound 1.265 µM): 0.0198
- relative viability (NCI-H460; first compound 4 µM): 0.0263
- relative viability (ABC-1; first compound 0.04 µM): 0.701
- relative viability (ABC-1; first compound 0.1265 µM): 0.479
- relative viability (ABC-1; first compound 0.4 µM): 0.44
- relative viability (ABC-1; first compound 1.265 µM): 0.451
- relative viability (ABC-1; first compound 4 µM): 0.334
- relative viability (SW 900; first compound 0.04 µM): 0.506
- relative viability (SW 900; first compound 0.1265 µM): 0.465
- relative viability (SW 900; first compound 0.4 µM): 0.318
- relative viability (SW 900; first compound 1.265 µM): 0.289
- relative viability (SW 900; first compound 4 µM): 0.222
- relative viability (HARA; first compound 0.04 µM): 0.224
- relative viability (HARA; first compound 0.1265 µM): 0.193
- relative viability (HARA; first compound 0.4 µM): 0.228
- relative viability (HARA; first compound 1.265 µM): 0.229
- relative viability (HARA; first compound 4 µM): 0.189
- relative viability (BEN; first compound 0.04 µM): 0.435
- relative viability (BEN; first compound 0.1265 µM): 0.443
- relative viability (BEN; first compound 0.4 µM): 0.476
- relative viability (BEN; first compound 1.265 µM): 0.376
- relative viability (BEN; first compound 4 µM): 0.325
- relative viability (EKVX; first compound 0.04 µM): 0.429
- relative viability (EKVX; first compound 0.1265 µM): 0.34
- relative viability (EKVX; first compound 0.4 µM): 0.372
- relative viability (EKVX; first compound 1.265 µM): 0.368
- relative viability (EKVX; first compound 4 µM): 0.314
- relative viability (NCI-H2170; first compound 0.04 µM): 0.342
- relative viability (NCI-H2170; first compound 0.1265 µM): 0.353
- relative viability (NCI-H2170; first compound 0.4 µM): 0.267
- relative viability (NCI-H2170; first compound 1.265 µM): 0.178
- relative viability (NCI-H2170; first compound 4 µM): 0.185
- relative viability (NCI-H2009; first compound 0.04 µM): 0.181
- relative viability (NCI-H2009; first compound 0.1265 µM): 0.137
- relative viability (NCI-H2009; first compound 0.4 µM): 0.199
- relative viability (NCI-H2009; first compound 1.265 µM): 0.158
- relative viability (NCI-H2009; first compound 4 µM): 0.156
- relative viability (NCI-H1437; first compound 0.04 µM): 0.266
- relative viability (NCI-H1437; first compound 0.1265 µM): 0.251
- relative viability (NCI-H1437; first compound 0.4 µM): 0.218
- relative viability (NCI-H1437; first compound 1.265 µM): 0.296
- relative viability (NCI-H1437; first compound 4 µM): 0.217
- relative viability (PC-14; first compound 0.04 µM): 0.486
- relative viability (PC-14; first compound 0.1265 µM): 0.238
- relative viability (PC-14; first compound 0.4 µM): 0.221
- relative viability (PC-14; first compound 1.265 µM): 0.116
- relative viability (PC-14; first compound 4 µM): 0.104
- relative viability (CAL-12T; first compound 0.04 µM): 0.413
- relative viability (CAL-12T; first compound 0.1265 µM): 0.377
- relative viability (CAL-12T; first compound 0.4 µM): 0.226
- relative viability (CAL-12T; first compound 1.265 µM): 0.114
- relative viability (CAL-12T; first compound 4 µM): 0.233
- relative viability (NCI-H727; first compound 0.04 µM): 0.63
- relative viability (NCI-H727; first compound 0.1265 µM): 0.576
- relative viability (NCI-H727; first compound 0.4 µM): 0.61
- relative viability (NCI-H727; first compound 1.265 µM): 0.538
- relative viability (NCI-H727; first compound 4 µM): 0.581
- relative viability (COR-L 105; first compound 0.04 µM): 0.384
- relative viability (COR-L 105; first compound 0.1265 µM): 0.429
- relative viability (COR-L 105; first compound 0.4 µM): 0.358
- relative viability (COR-L 105; first compound 1.265 µM): 0.311
- relative viability (COR-L 105; first compound 4 µM): 0.34
